Key:
Assay in all cases: relative viability (nuclei count vs DMSO), 5 days (fraction); higher = more cells survive
[1] = compound: C1=CC=C(C(=C1)C2=CC=C(C=C2)C3=CSC4=C3C(=C(C(=O)N4)C#N)O)O + CCNC(=O)c1noc(-c2cc(C(C)C)c(O)cc2O)c1-c1ccc(CN2CCOCC2)cc1 [Luminespib] (partner 0.01 µM)
Procedure, shortened: (§1)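 Relative viability is defined as nuclei in treated wells over nuclei in vehicle wells. Duplicate plates were run and medians reported. Lung cancer cell lines in 1536-well plates were dosed by pin tool one day after seeding, with one drug or with a fixed anchor-drug dose plus five library-drug doses (not always all listed) in √10 steps, and nuclei were counted after 5 days.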

[2] = compound: C1=CC=C(C(=C1)C2=CC=C(C=C2)C3=CSC4=C3C(=C(C(=O)N4)C#N)O)O + C[C@@H](Oc1cc(-c2cnn(C3CCNCC3)c2)cnc1N)c1c(Cl)ccc(F)c1Cl [Crizotinib] (partner 1 µM)
Procedure, shortened: as §1

TGX 221 + OSI-027 = compound: CC1=CN2C(=O)C=C(N=C2C(=C1)C(C)NC3=CC=CC=C3)N4CCOCC4 [TGX 221] + COc1cccc2cc(-c3nc([C@H]4CC[C@H](C(=O)O)CC4)n4ncnc(N)c34)[nH]c12 [OSI-027] (partner 0.5 µM)
Procedure, shortened: as §1

[3] = compound: O=C(CCCCCCNC(=O)c1cnc(N(c2ccccc2)c2ccccc2)nc1)NO [Ricolinostat] + O=C(CCCCCCC(=O)Nc1ccccc1)NO [Vorinostat] (partner 1 µM)
Procedure, shortened: as §1

Row | Cell Line | relative viability ([1]; first compound 0.08 µM) | relative viability ([1]; first compound 0.253 µM) | relative viability ([1]; first compound 0.8 µM) | relative viability ([1]; first compound 2.53 µM) | relative viability ([1]; first compound 8 µM) | relative viability ([2]; first compound 0.08 µM) | relative viability ([2]; first compound 0.253 µM) | relative viability ([2]; first compound 0.8 µM) | relative viability ([2]; first compound 2.53 µM) | relative viability ([2]; first compound 8 µM) | relative viability (TGX 221 + OSI-027; first compound 0.08 µM) | relative viability (TGX 221 + OSI-027; first compound 0.253 µM) | relative viability (TGX 221 + OSI-027; first compound 0.8 µM) | relative viability (TGX 221 + OSI-027; first compound 2.53 µM) | relative viability (TGX 221 + OSI-027; first compound 8 µM) | relative viability ([3]; first compound 0.08 µM) | relative viability ([3]; first compound 0.253 µM) | relative viability ([3]; first compound 0.8 µM) | relative viability ([3]; first compound 2.53 µM)
1 | COR-L 105 | 0.881 | 0.821 | 0.722 | 0.625 | 0.752 | 0.712 | 1.04 | 0.646 | 0.778 | 0.646 | 0.793 | 0.612 | 0.759 | 1.03 | 0.627 | 0.794 | 0.825 | 0.643 | 0.7
2 | COR-L23 | 0.524 | 0.745 | 0.714 | 0.773 | 0.52 | 0.577 | 0.89 | 0.772 | 0.644 | 0.533 | 0.713 | 0.777 | 0.815 | 0.835 | 0.715 | 0.406 | 0.383 | 0.388 | 0.297
3 | LXF-289 | 0.764 | 0.651 | 0.8 | 0.73 | 0.632 | 0.779 | 0.852 | 0.789 | 0.845 | 0.826 | 0.817 | 0.809 | 0.756 | 0.754 | 0.757 | 0.697 | 0.723 | 0.681 | 0.483
4 | PC-14 | – | 0.185 | 0.105 | 0.162 | 0.142 | 0.851 | 0.859 | 0.869 | 1.02 | 0.907 | 0.707 | 0.791 | 0.908 | 1.05 | 0.654 | 0.576 | 0.691 | 0.593 | 0.396
5 | EKVX | 1.14 | 0.977 | 0.863 | 0.912 | 0.726 | 0.947 | 1.06 | 0.824 | 1.36 | 0.803 | 0.697 | 0.708 | 0.698 | 0.687 | 0.672 | 0.617 | 0.724 | 0.62 | 0.74
6 | NCI-H322M | 0.792 | 0.808 | 0.881 | 0.911 | 0.758 | 0.708 | 0.535 | 0.882 | 0.99 | 0.868 | 0.541 | 0.515 | 0.551 | 0.507 | 0.567 | 0.621 | 0.834 | 0.827 | 0.804
7 | NCI-H520 | 0.261 | 0.225 | 0.218 | 0.246 | 0.21 | 0.517 | 1.03 | 0.78 | 0.981 | 0.524 | 0.212 | 0.165 | 0.227 | 0.188 | 0.195 | – | 0.659 | 0.629 | 0.532
8 | LC-2-ad | 1.08 | 1.4 | 1.01 | 1.23 | 0.983 | 0.42 | 0.489 | 0.452 | 0.49 | 0.438 | 0.745 | 0.759 | 0.931 | 0.846 | 0.804 | 0.68 | 0.67 | 0.64 | 0.458

From the supplement of paper PMC10307832
